# From patent EP0670711B1, “ANTIFUNGAL MOUTHCARE COMPOSITIONS” (AMBI Inc., priority 1992, dated 1994)
# What was measured:
# Assay type in all cases: cell-based
# Strep. agalactiæ [1] = test: nominal inhibitory concentration (NIC) assay; conditions: read-out: NIC
# Strep. sanguis [2] = test: nominal inhibitory concentration (NIC) assay; conditions: read-out: NIC
# Strep.mutans [3] = test: nominal inhibitory concentration (NIC) assay; conditions: Streptococcus mutans, read-out: NIC
# Strep. milleri [4] = test: nominal inhibitory concentration (NIC) assay; conditions: read-out: NIC
# Strep. mitis [5] = test: nominal inhibitory concentration (NIC) assay; conditions: Streptococcus mitis, read-out: NIC
# Strep mitior [6] = test: nominal inhibitory concentration (NIC) assay; conditions: read-out: NIC
# Strep. salivarius [7] = test: nominal inhibitory concentration (NIC) assay; conditions: Streptococcus salivarius, read-out: NIC
# Strep.pyogenes [8] = test: nominal inhibitory concentration (NIC) assay; conditions: Streptococcus pyogenes, read-out: NIC
# Staph.aureus [9] = test: nominal inhibitory concentration (NIC) assay; conditions: Staphylococcus aureus, read-out: NIC
# A actinomyces NCTC 9709 = test: zone diffusion assay; conditions: solution with 500ppm of each agent
# Source text: (§1) The assay was repeated for each of cetyl pyridinium chloride, chlorhexidine or triclosan individually. […]
# C albicans NCTC 3089 = test: zone diffusion assay; conditions: solution with 500ppm of each agent
# Source text: as §1
# C kefyr NCTC 3106 = test: zone diffusion assay; conditions: solution with 500ppm of each agent
# Source text: as §1
# C tropicalis NCTC 3114 = test: zone diffusion assay; conditions: solution with 500ppm of each agent
# Source text: as §1
# F nucleatum NCTC 10562 = test: zone diffusion assay; conditions: solution with 500ppm of each agent
# Source text: as §1
# S mutans NCTC 11061 = test: zone diffusion assay; conditions: solution with 500ppm of each agent
# Source text: as §1
# S sanguis NCTC 10904 = test: zone diffusion assay; conditions: solution with 500ppm of each agent
# Source text: as §1
# W recta NCTC 11489 = test: zone diffusion assay; conditions: solution with 500ppm of each agent
# Source text: as §1
# G.vaginalis [10] = test: nominal inhibitory concentration (NIC) assay; conditions: Gardnerella vaginalis, read-out: NIC
# Lacto odontolyticus [11] = test: nominal inhibitory concentration (NIC) assay; conditions: read-out: NIC
# Act. odontolyticus [12] = test: nominal inhibitory concentration (NIC) assay; conditions: Schaalia odontolytica, read-out: NIC
# Act. israelii [13] = test: nominal inhibitory concentration (NIC) assay; conditions: Actinomyces israelii, read-out: NIC
# Act. naeslundii [14] = test: nominal inhibitory concentration (NIC) assay; conditions: Actinomyces naeslundii, read-out: NIC
# Act. actinomycetem [15] = test: nominal inhibitory concentration (NIC) assay; conditions: read-out: NIC
# Fuso. nucleatum [16] = test: nominal inhibitory concentration (NIC) assay; conditions: Fusobacterium nucleatum, read-out: NIC
# Bact. intermedius [17] = test: nominal inhibitory concentration (NIC) assay; conditions: Prevotella intermedia, read-out: NIC
# Peptostrepto. micros [18] = test: nominal inhibitory concentration (NIC) assay; conditions: read-out: NIC
# Porph. gingivalis [19] = test: nominal inhibitory concentration (NIC) assay; conditions: Porphyromonas gingivalis, read-out: NIC
# Bact. ureolyticus [20] = test: nominal inhibitory concentration (NIC) assay; conditions: read-out: NIC
# Candida albicans [21] = test: nominal inhibitory concentration (NIC) assay; conditions: read-out: NIC
# Candida kefyr [22] = test: nominal inhibitory concentration (NIC) assay; conditions: Kluyveromyces marxianus, read-out: NIC
# Candida tropicalis [23] = test: nominal inhibitory concentration (NIC) assay; conditions: read-out: NIC
# [24] = system: all the organisms shown in the Example 25 Table 1; test: NIC assay, summary over all organisms of Table 1; conditions: read-out: levels needed to inhibit all the desired oral microrganisms
# Candida organisms [25] = test: NIC assay, summary for Candida
# Strep. agalactiæ [26] = test: nominal inhibitory concentration (NIC) assay
# Strep. sanguis [27] = test: nominal inhibitory concentration (NIC) assay
# Strep.mutans [28] = test: nominal inhibitory concentration (NIC) assay
# Strep. milleri [29] = test: nominal inhibitory concentration (NIC) assay
# Strep. mitis [30] = test: nominal inhibitory concentration (NIC) assay
# Strep mitior [31] = test: nominal inhibitory concentration (NIC) assay
# Strep. salivarius [32] = test: nominal inhibitory concentration (NIC) assay
# Strep.pyogenes [33] = test: nominal inhibitory concentration (NIC) assay
# Staph.aureus [34] = test: nominal inhibitory concentration (NIC) assay
# G.vaginalis [35] = test: nominal inhibitory concentration (NIC) assay
# Lacto odontolyticus [36] = test: nominal inhibitory concentration (NIC) assay
# Act. odontolyticus [37] = test: nominal inhibitory concentration (NIC) assay
# Act. israelii [38] = test: nominal inhibitory concentration (NIC) assay
# Act. naeslundii [39] = test: nominal inhibitory concentration (NIC) assay
# Act. actinomycetem [40] = test: nominal inhibitory concentration (NIC) assay
# Fuso. nucleatum [41] = test: nominal inhibitory concentration (NIC) assay
# Bact. intermedius [42] = test: nominal inhibitory concentration (NIC) assay
# Peptostrepto. micros [43] = test: nominal inhibitory concentration (NIC) assay
# Porph. gingivalis [44] = test: nominal inhibitory concentration (NIC) assay
# Bact. ureolyticus [45] = test: nominal inhibitory concentration (NIC) assay
# Candida albicans [46] = test: nominal inhibitory concentration (NIC) assay
# Candida kefyr [47] = test: nominal inhibitory concentration (NIC) assay
# Candida tropicalis [48] = test: nominal inhibitory concentration (NIC) assay
# [49] = system: all the organisms shown in the Example 25 Table 1; test: NIC assay, summary over all organisms of Table 1; conditions: all organisms of Example 25 Table 1 (for CPC: kills all the organisms)
# Source text: (§2) Thus, lower levels of such antimicrobial agent may be used in the present invention if it intended that such antimicrobial agent is being included principally to provide anti-Candida activity, to supplement the gap in the spectrum of activity of nisin.
# Candida organisms [50] = test: NIC assay, summary for Candida; conditions: result in words
# Source text: as §2
compound,measurement,setting,value
"Oc1cc(Cl)ccc1Oc1ccc(Cl)cc1Cl [TCN, triclosan]",MIC,Strep. agalactiæ [1],4.96 µg/mL
same,MIC,Strep. sanguis [2],0.88 µg/mL
same,MIC,Strep.mutans [3],1.11 µg/mL
same,MIC,Strep. milleri [4],1.08 µg/mL
same,MIC,Strep. mitis [5],3.94 µg/mL
same,MIC,Strep mitior [6],4.23 µg/mL
same,MIC,Strep. salivarius [7],4.05 µg/mL
same,MIC,Strep.pyogenes [8],4.35 µg/mL
same,MIC,Staph.aureus [9],0.09 µg/mL
same,mean zones,A actinomyces NCTC 9709,35.92 mm
same,mean zones,C albicans NCTC 3089,16.99 mm
same,mean zones,C kefyr NCTC 3106,21.99 mm
same,mean zones,C tropicalis NCTC 3114,13.66 mm
same,mean zones,F nucleatum NCTC 10562,33.98 mm
same,mean zones,S mutans NCTC 11061,32.82 mm
same,mean zones,S sanguis NCTC 10904,28.97 mm
same,mean zones,W recta NCTC 11489,37.20 mm
same,MIC,G.vaginalis [10],0.41 µg/mL
same,MIC,Lacto odontolyticus [11],7.49 µg/mL
same,MIC,Act. odontolyticus [12],3.02 µg/mL
same,MIC,Act. israelii [13],3.19 µg/mL
same,MIC,Act. naeslundii [14],1.98 µg/mL
same,MIC,Act. actinomycetem [15],1.69 µg/mL
same,MIC,Fuso. nucleatum [16],1.6 µg/mL
same,MIC,Bact. intermedius [17],3.72 µg/mL
same,MIC,Peptostrepto. micros [18],6.76 µg/mL
same,MIC,Porph. gingivalis [19],4 µg/mL
same,MIC,Bact. ureolyticus [20],7.65 µg/mL
same,MIC,Candida albicans [21],1 µg/mL
same,MIC,Candida kefyr [22],0.46 µg/mL
same,MIC,Candida tropicalis [23],0.35 µg/mL
same,MIC,[24],~7.65 µg/mL
same,MIC,"Candida organisms [25]; Candida, read-out: levels for Candida inhibition",~1 µg/mL
same,inhibitory activity against candida species,"Candida organisms [25]; result in words, NIC assay",effective
nisin [Ambicin N],NIC,Strep. agalactiæ [26],0.22 ppm
same,NIC,Strep. sanguis [27],0.23 ppm
same,NIC,Strep.mutans [28],0.43 ppm
same,NIC,Strep. milleri [29],0.14 ppm
same,NIC,Strep. mitis [30],0.33 ppm
same,NIC,Strep mitior [31],0.05 ppm
same,NIC,Strep. salivarius [32],0.18 ppm
same,NIC,Strep.pyogenes [33],0.009 ppm
same,NIC,Staph.aureus [34],0.13 ppm
same,NIC,G.vaginalis [35],0.22 ppm
same,NIC,Lacto odontolyticus [36],0.02 ppm
same,NIC,Act. odontolyticus [37],0.12 ppm
same,NIC,Act. israelii [38],0.53 ppm
same,NIC,Act. naeslundii [39],>12.8 ppm
same,NIC,Act. actinomycetem [40],0.02 ppm
same,NIC,Fuso. nucleatum [41],0.048 ppm
same,NIC,Bact. intermedius [42],0.91 ppm
same,NIC,Peptostrepto. micros [43],>1.28 ppm
same,NIC,Porph. gingivalis [44],>1.28 ppm
same,NIC,Bact. ureolyticus [45],0.035 ppm
same,NIC,Candida albicans [46],>128 ppm
same,NIC,Candida kefyr [47],>128 ppm
same,NIC,Candida tropicalis [48],>128 ppm
same,mean zones,A actinomyces NCTC 9709,23.04 mm
same,mean zones,C albicans NCTC 3089,0 mm
same,mean zones,C kefyr NCTC 3106,0 mm
same,mean zones,C tropicalis NCTC 3114,0 mm
same,mean zones,F nucleatum NCTC 10562,29.38 mm
same,mean zones,S mutans NCTC 11061,18.36 mm
same,mean zones,S sanguis NCTC 10904,15.38 mm
same,mean zones,W recta NCTC 11489,28.19 mm
same,levels needed to inhibit all the desired oral microrganisms,[49],about 0.99 ppm
same,inhibitory activity against candida species,Candida organisms [50],lacks effective inhibitory activity
